The values below are quoted from earlier work in patent publication US11931418B2, “Methods of treating severe inflammation” (Ashvattha Therapeutics, Inc., priority 2020, dated 2024).

The test system of the data set is SARS-CoV-2 patients. To be noted: COVID-19 patients.

On to lopinavir-ritonavir, for which the clinical benefit entry was “no benefit observed”.
